Measurements published in patent US6069176A, “Phenylethanolamine compounds useful as β 3 agonists, process for producing the same, and intermediates in the production of the same” (Mitsubishi-Tokyo Pharmaceuticals, Inc., priority 1995, dated 2000).
Counter-ions that a name gives are not always drawn. Like-named read-outs stand apart in the source and are kept apart here.

Legend:
β3 adrenergic receptor [1] = biological target: T1, β3 adrenergic receptor (Rattus norvegicus, UniProt P26255); assay: [Test 1] spontaneous locomotion-suppressing effect on isolated rat colon (β3 adrenergic receptor stimulating effect); type: cell-based
β2 adrenergic receptor = β2 adrenergic receptor (Cavia porcellus, UniProt Q8K4Z4); assay: [Test 3] relaxing effect on isolated guinea pig tracheal muscle (β2 adrenergic receptor stimulating effect); type: cell-based
β1 adrenergic receptor = biological target: T2, β1 adrenergic receptor (Cavia porcellus, UniProt H0W3H1); assay: [Test 4] heart beat increasing effect on isolated guinea pig right atrium (β1 adrenergic receptor stimulating effect); type: cell-based; conditions: read-out: EC10 (heart beat increasing effect on isolated guinea pig right atrium)
T2 construct: functional heart beat increase (chronotropy)

[2] = system: isolated rat bladder detrusor muscle; assay: [Test 5] relaxing effect on isolated rat bladder detrusor muscle (smooth muscle); type: cell-based; conditions: read-out: EC50 (relaxing effect on isolated rat bladder detrusor muscle)
Experimental: [Test 5] Examination of relaxing effect on isolated rat bladder detrusor muscle (smooth muscle)
Rat bladders were isolated by a common method for preparation of strips. The isolated bladder strips were mounted in an organ bath filled with Krebs' solution kept at 37° C., under mixed gas aeration (95% O2 +5% CO2) and subjected to an initial tension of 1.0 g. Each test compound was cumulatively added to the organ bath at intervals of 10 minutes.

rat colon [3] = assay: [Test 6] suppressing effect on spontaneous locomotion of anesthetized rat colon (in vivo test); parameters: species or system rat (male Wistar rats); conditions: iv, 10 min, read-out: ED50 (suppressing effect on spontaneous locomotion of anesthetized rat colon)
Experimental: [Test 6] […] The lead wire of the force transducer was connected to a multipurpose preamp through a bridge box (FB-01, Star Medical), and the spontaneous locomotion of the colon was recorded with a Thermal Array Recorder (Nihon Koden), upon which the total degrees of contraction over 10 minutes were compared before and after bolus administration.

[4] = system: rat confinement stress-induced diarrhea models; assay: [Test 7] suppression of diarrhea in rat confinement stress-induced diarrhea models; type: in vivo, rat (male Wistar rats); conditions: po, 1.0 mg/kg; feces observed over 3 hours
Experimental: Examination of suppressing effect on diarrhea using rat confinement stress-induced diarrhea models
The nature of the feces excreted over a total of 3 hours was observed every 30 minutes, and the results were recorded as the diarrhea coefficient (0: no fecal excretion, 1: solid feces, 2: soft feces, 3: mild diarrhea, 4: muddy feces). Here, cases with a diarrhea coefficient score of 3 or higher, i.e. from feces which left a stain on filter paper to muddy feces, were judged as diarrhea, and the rate of diarrhea suppression was calculated (Table 6).

rat bladder = assay: [Test 9] bladder contraction induced by electrical stimulation of peripheral end of pelvic nerve in anesthetized rat; type: in vivo; conditions: through femoral vein; 20 Hz, 0.3 msec, 5V; urethane and α-chloralose anesthesia
Excerpt: [Test 9] Effect on bladder contraction induced by electrical stimulation of peripheral end of pelvic nerve in anesthetized rat
After median incision in the abdomen of rats anesthetized with urethane and α-chloralose, the ureters on both sides were ligated and cut on the kidney side, and pledgets were placed on the cut sections to absorb the urine. Next, the hypogastric nerves on both sides were transected and the base of the penis were ligated at close the urethra. A small hole was opened in the top of bladder and, after inserting one end of a polyethylene tube, ligated. The other end of the polyethylene tube was connected to a pressure transducer (TP 400, Nihon Koden) to measure the intravesical pressure.
Physiological saline was injected into the bladder to obtain intravesical pressure at a 100 mm H2 O. The change of the intervesical pressure was recorded with a heat recorder (WT 685G, Nihon Koden). After ablating the left pelvic nerves from the fatty tissue around the bladder and cutting the central section, a platinum electrode was implanted at the peripheral end of the pelvic nerves. An electrical stimulation apparatus (SEN-3301, Nihon Koden) was used for generating a rectangular wave electrical stimulation (20 Hz, 0.3 msec, 5V) for 5 seconds every 5 minutes. […]

β3 adrenergic receptor [5] = biological target: T1, β3 adrenergic receptor; assay: cell-based; parameters: Isolated rat fat was used to examine the effect on fat decomposition; from tissue; host or cells: adipocytes from fat around the testicles of male SD rats; species or system rat (male SD rats); conditions: rat adipocyte suspension, 30 minutes at 30° C., glycerol content; read-out: lypolytic activity (EC50 value)
β3 adrenergic receptors = conditions: prior art; cited from earlier work
rat colon [6] = conditions: Drugs of the Future, 18, 529-549 (1993); cited from earlier work
[7] = Drugs of the Future, 18, 529-549 (1993); cited from earlier work
bladder detrusor muscle = conditions: The autonomic nervous system, 26, 380-387 (1989); cited from earlier work
[8] = treatment for urinary incontinence; cited from earlier work
[9] = 10% augmentation of heart beats, 37° C.

T1 sequence (P26255 whole entry): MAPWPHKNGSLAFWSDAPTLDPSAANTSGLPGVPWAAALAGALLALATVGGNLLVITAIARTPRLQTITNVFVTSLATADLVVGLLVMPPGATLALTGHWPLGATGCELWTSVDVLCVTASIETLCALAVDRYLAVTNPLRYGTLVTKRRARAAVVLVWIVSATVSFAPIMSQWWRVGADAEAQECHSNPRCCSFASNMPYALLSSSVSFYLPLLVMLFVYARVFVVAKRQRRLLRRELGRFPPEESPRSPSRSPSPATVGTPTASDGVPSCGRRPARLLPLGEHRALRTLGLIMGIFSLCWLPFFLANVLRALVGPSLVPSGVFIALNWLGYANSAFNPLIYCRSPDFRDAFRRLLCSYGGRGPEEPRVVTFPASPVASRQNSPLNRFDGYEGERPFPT
T2 sequence (H0W3H1 1-470): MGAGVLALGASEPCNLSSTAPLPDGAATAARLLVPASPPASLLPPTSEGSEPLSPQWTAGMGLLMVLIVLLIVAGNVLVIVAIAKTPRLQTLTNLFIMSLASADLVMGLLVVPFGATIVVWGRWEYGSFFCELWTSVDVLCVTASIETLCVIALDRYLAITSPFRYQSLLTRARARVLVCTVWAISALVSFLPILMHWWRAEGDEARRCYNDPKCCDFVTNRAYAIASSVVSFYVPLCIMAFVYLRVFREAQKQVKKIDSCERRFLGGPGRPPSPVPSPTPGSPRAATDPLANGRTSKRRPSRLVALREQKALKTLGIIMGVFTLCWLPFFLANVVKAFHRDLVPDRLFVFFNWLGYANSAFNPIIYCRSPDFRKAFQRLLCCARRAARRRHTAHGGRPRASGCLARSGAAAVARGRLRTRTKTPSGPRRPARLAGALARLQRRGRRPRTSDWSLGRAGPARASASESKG
Sequence of β2 adrenergic receptor (Q8K4Z4 whole entry): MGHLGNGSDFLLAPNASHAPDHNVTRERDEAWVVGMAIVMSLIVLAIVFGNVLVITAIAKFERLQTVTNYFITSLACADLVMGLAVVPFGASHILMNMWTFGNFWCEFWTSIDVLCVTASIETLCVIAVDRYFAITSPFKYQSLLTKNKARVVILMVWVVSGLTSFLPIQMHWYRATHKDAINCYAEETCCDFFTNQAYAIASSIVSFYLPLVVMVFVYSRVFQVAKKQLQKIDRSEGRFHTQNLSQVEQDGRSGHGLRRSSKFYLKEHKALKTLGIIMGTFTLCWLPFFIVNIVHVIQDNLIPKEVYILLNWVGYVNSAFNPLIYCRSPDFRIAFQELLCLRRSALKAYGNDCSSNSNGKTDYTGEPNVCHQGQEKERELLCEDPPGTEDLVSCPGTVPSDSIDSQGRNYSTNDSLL

SMILES	EC50 (β3 adrenergic receptor [1]) [nM]	EC50 (β2 adrenergic receptor) [nM]	EC10 (β1 adrenergic receptor; [9]) [nM]	diarrhea suppression rate [4] [%]	further results
O=C([O-])COc1cccc(C2CCCC(NC[C@H](O)c3cccc(Cl)c3)C2)c1.[Na+] (stereo partly shown)	1.4	4200		60	EC10 (β1 adrenergic receptor): > 30000 nM; EC50 [2]: 16 nM; ED50 (rat colon [3]): 0.27 µg/kg; suppression of bladder contraction (FIG. 2) (rat bladder): suppressed bladder contraction at a lower dose than Clenbuterol hydrochloride; EC50 (β3 adrenergic receptor [5]): 21 nM
O=C([O-])COc1ccccc1C1CCCC(NC[C@H](O)c2cccc(Cl)c2)C1.[Na+] (stereo partly shown)	3.3	890		30	EC10 (β1 adrenergic receptor): > 30000 nM
COC(=O)COc1ccc(C[C@@H](C)NC[C@H](O)c2cccc(Cl)c2)cc1 (relative stereo) [BRL35135, (R*R*)-(±)-[4-[2-[2-(3-chlorophenyl)-2-hydroxyethylamino]propyl]phenoxy]acetic acid methyl ester hydrobromide salt]					selective action on β3 adrenergic receptors (β3 adrenergic receptors): act selectively on β3 adrenergic receptors; lypolytic and hypoglycemic effect [7]: lypolytic and hypoglycemic effect
CC(C)(C)NCC(O)c1cc(Cl)c(N)c(Cl)c1 (stereo not shown) [Clenbuterol]					EC50 [2]: 31 nM; relaxing effect on the bladder detrusor muscle (bladder detrusor muscle): relaxing effect on the bladder detrusor muscle; side-effects [8]: side-effects including finger tremor and palpitation
CCOC(=O)COc1cccc(C2CCCC(NC[C@H](O)c3cccc(Cl)c3)C2)c1 (stereo partly drawn) [Example 14, (1R)-1-(3-Chlorophenyl)-2-[3-(3-ethoxycarbonylmethoxyphenyl)cyclohexylamino]ethanol]				50	
CC(C)NCC(O)c1ccc(O)c(O)c1 (stereo not shown) [Isoproterenol]					EC50 [2]: 10 nM

Second part, led by results:

EC50 (β3 adrenergic receptor [1]) [nM]	EC50 (β2 adrenergic receptor) [nM]	EC10 (β1 adrenergic receptor; [9]) [nM]	SMILES	diarrhea suppression rate [4] [%]	further results
7.7	14000	> 30000	CCOC(=O)COc1ccc2c(c1)CC(NCC(O)c1cccc(Cl)c1)CC2.Cl (racemic) [SR 58611A, (RS)-N-(7-ethoxycarbonylmethoxy-1,2,3,4-tetrahydronaphth-2-yl)-2-(3-chlorophenyl)-2-hydroxyethanamine hydrochloride, reference compound]	20	ED50 (rat colon [3]): 12 µg/kg; selective action on β3 adrenergic receptors (β3 adrenergic receptors): act selectively on β3 adrenergic receptors; suppressing effect on spontaneous locomotion of rat colon (rat colon [6]): potent suppressing effect on spontaneous locomotion of rat colon
12	15000	> 30000	O=C(O)COc1ccc(C2CCCC(NC[C@H](O)c3cccc(Cl)c3)C2)cc1 (single isomer, unassigned) [Example 32, acetate]		
3.7	790	> 30000	CCOC(=O)COc1cccc(C2CCCC(NC[C@H](O)c3cccc(Cl)c3)C2)c1 (stereo partly drawn) [Example 11, (1R)-1-(3-Chlorophenyl)-2-[3-(3-ethoxycarbonylmethoxyphenyl)cyclohexylamino]ethanol hydrochloride]		ED50 (rat colon [3]): 0.23 µg/kg
15	1100		CCOC(=O)COc1ccc(C2CCCC(NC[C@H](O)c3cccc(Cl)c3)C2)cc1 (stereo partly drawn) [Example 28, (1R)-1-(3-Chlorophenyl)-2-[3-(4-ethoxycarbonylmethoxyphenyl)cyclohexylamino]ethanol hydrochloride]		
3.8	820	> 30000	CCOC(=O)COc1ccccc1C1CCCC(NC[C@H](O)c2cccc(Cl)c2)C1 (stereo partly drawn) [Example 43, (1R)-(3-Chlorophenyl)-2-[3-(2-ethoxycarbonylmethoxyphenyl)cyclohexylamino]ethanol hydrochloride]	50	
42			CCOC(=O)C1(C(=O)OCC)Oc2ccc(C3CCCC(NC[C@H](O)c4cccc(Cl)c4)C3)cc2O1 (stereo partly drawn) [Example 60, (2R)-Diethyl 5-[3-[2-(3-chlorophenyl)-2-hydroxyethylamino]cyclohexyl]benzo-1,3-dioxol-2,2-dicarboxylate]		
90	820	> 30000	CCOC(=O)COc1ccc(C2CCC(NC[C@H](O)c3cccc(Cl)c3)C2)cc1 (stereo partly drawn) [Example 69, (2R)-Ethyl (4-[3-[2-(3-chlorophenyl)-2-hydroxyethylamino]cyclopentyl]phenoxy)acetate]		
